Assay results from US6777422B2, “Substituted tetrahydroisoquinolines as C5a receptor modulators” (Neurogen Corp., priority 2002, dated 2004).

biological target: T1, human C5a receptor (Homo sapiens, UniProt P21730); assay: C5a receptor mediated calcium mobilization assay (Example 20); assay type: cell-based; settings: differentiated U937 cells, read-out: Ca2+ (Ki in the standard assay of C5a receptor mediated calcium mobilization)
T1 construct: endogenous in cells; host or cells: U937 cells differentiated with 1 mM dibutyryl cAMP
T1 sequence (P21730 1-350): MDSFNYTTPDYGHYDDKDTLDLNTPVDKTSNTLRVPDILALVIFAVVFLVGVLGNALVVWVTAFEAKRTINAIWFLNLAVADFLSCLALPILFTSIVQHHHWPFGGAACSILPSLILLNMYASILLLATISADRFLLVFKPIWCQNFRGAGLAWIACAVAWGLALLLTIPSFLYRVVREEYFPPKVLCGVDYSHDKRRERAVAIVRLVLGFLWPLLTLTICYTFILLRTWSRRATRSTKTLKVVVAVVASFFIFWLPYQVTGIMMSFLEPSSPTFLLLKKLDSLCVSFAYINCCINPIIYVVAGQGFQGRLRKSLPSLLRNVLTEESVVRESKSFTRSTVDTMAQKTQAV
Procedure: Calcium Mobilization Assays
U937 cells are grown in differentiation media (1 mM dibutyryl cAMP in RPMI 1640 medium containing 10% fetal bovine serum) for 48 hrs at 37° C. then reseeded onto 96-well plates suitable for use in a FLIPR™ Plate Reader (Molecular Devices Corp., Sunnyvale Calif.). Cells are grown an additional 24 hours (to 70-90% confluence) before the assay. The cells are then washed once with Krebs Ringer solution. FLUO-3 calcium sensitive dye (Molecular Probes, Inc. Eugene, Oreg.) is added to 10 μg/mL and incubated with the cells at room temperature for 1 to 2 hours. The 96 well plates are then washed to remove excess dye. Fluorescence responses, measured by excitation at 480 nm and emission at 530 nm, are monitored upon the addition of human C5a to the cells to a final concentration of 0.01-30.0 nM, using the FLIPR™ device (Molecular Devices).
C. Assays for the Identification of Receptor Modulatory Agents: Antagonists and Agonists
The calcium mobilization assay described above may be readily adapted for identifying test compounds that have agonist or antagonist activity at the human C5a receptor.
For example, in order to identify antagonist compounds, differentiated U937 cells are washed and incubated with Fluo-3 dye as described above. One hour prior to measuring the fluorescence signal, a subset of the cells is incubated with 1 μM of at least one compound to be tested. The fluorescence response upon the subsequent addition of 0.3 nM (final concentration) human recombinant C5a is monitored using the FLIPR™ plate reader. Antagonist compounds elicit at least a 2-fold decrease in the fluorescence response relative to that measured in the presence of human C5a alone. Preferred antagonist compounds elicit at least a 5-fold, preferably at least a 10-fold, and more preferably at least a 20-fold decrease in the fluorescence response relative to that measured in the presence of human C5a alone.

Ki	Structure (SMILES)
< 1000 nM	Cc1cccc(C)c1C1c2ccccc2CCN1CC(=O)N(Cc1ccccc1F)C1Cc2ccccc2C1 (stereo not drawn) [Compound 56, N-(indan-2-yl)-2-[1-(2,6-dimethylphenyl)-3,4-dihydroisoquinolin-2(1H)-yl]-N-(2-fluorobenzyl)acetamide]
< 1000 nM	Cc1cccc([C@H]2c3ccccc3CCN2[C@@H](C)C(=O)N(Cc2ccccc2F)C2Cc3ccccc3C2)c1C [Compound 67, (2S)-N-(indan-2-yl)-2-[(1R)-1-(2,3-dimethylphenyl)-3,4-dihydroisoquinolin-2(1H)-yl]-N-(2-fluorobenzyl)propanamide]
< 1000 nM	Cc1cccc([C@@H]2c3ccccc3CCN2[C@@H](C)C(=O)N(Cc2ccccc2F)C2Cc3ccccc3C2)c1C [Compound 68, (2S)-N-(indan-2-yl)-2-[(1S)-1-(2,3-dimethylphenyl)-3,4-dihydroisoquinolin-2(1H)-yl]-N-(2-fluorobenzyl)propanamide]
< 1000 nM	C[C@@H](C(=O)N(Cc1ccccc1F)C1Cc2ccccc2C1)N1CCc2ccccc2[C@@H]1c1ccccc1Cl [Compound 64, (2S)-2-[(1R)-1-(2-chlorophenyl)-3,4-dihydroisoquinolin-2(1H)-yl]-N-(indan-2-yl)-N-(2-fluorobenzyl)propanamide]
< 1000 nM	C[C@@H](C(=O)N(Cc1ccccc1F)C1Cc2ccccc2C1)N1CCc2ccccc2[C@@H]1c1ccccc1C(F)(F)F [Compound 69, (2S)-N-(indan-2-yl)-N-(2-fluorobenzyl)-2-[(1R)-1-[2-(trifluoromethyl)phenyl]-3,4-dihydroisoquinolin-2(1H)-yl]propanamide]
< 1000 nM	C[C@@H](C(=O)N(Cc1cccc(O)c1F)C1Cc2ccccc2C1)N1CCc2ccccc2[C@@H]1c1ccccc1Cl [Compound 115, (2S)-2-[(1R)-1-(2-chlorophenyl)-3,4-dihydroisoquinolin-2(1H)-yl]-N-(indan-2-yl)-N-(2-fluoro-3-hydroxybenzyl)propanamide]
< 1000 nM	Cc1ccc(C2c3ccccc3CCN2CC(=O)N(Cc2ccccc2F)C2Cc3ccccc3C2)cc1C (stereo not drawn) [Compound 35, N-(indan-2-yl)-2-[1-(3,4-dimethylphenyl)-3,4-dihydroisoquinolin-2(1H)-yl]-N-(2-fluorobenzyl)acetamide]
< 1000 nM	Cc1cccc(C)c1[C@H]1c2ccccc2CCN1[C@@H](C)C(=O)N(Cc1ccccc1F)C1Cc2ccccc2C1 [Compound 71, (2S)-N-(indan-2-yl)-2-[(1R)-1-(2,6-dimethylphenyl)-3,4-dihydroisoquinolin-2(1H)-yl]-N-(2-fluorobenzyl)propanamide]
< 1000 nM	O=C(CN1CCc2ccccc2[C@H]1c1cccc(Cl)c1Cl)N(Cc1ccccc1F)C1Cc2ccccc2C1 (stereo in doubt) [Compound 36, 2-[1-(2,3-dichlorophenyl)-3,4-dihydroisoquinolin-2(1H)-yl]-N-(indan-2-yl)-N-(2-fluorobenzyl)acetamide]

More lines, now with the values behind:

Structure (SMILES)	Ki
Cc1ccccc1C1c2ccccc2[C@@H](C)CN1CC(=O)N(Cc1ccccc1F)C1Cc2ccccc2C1 (stereo in doubt) [Compound 30, N-(2-Fluoro-benzyl)-N-indan-2-yl-2-(4-methyl-1-o-tolyl-3,4-dihydro-1H-isoquinolin-2-yl)-acetamide]	< 1000 nM
C[C@@H](C(=O)N(CCc1ccccc1F)Cc1ccccc1F)N1CCc2ccccc2[C@@H]1c1ccccc1Cl [Compound 109, (2S)-2-[(1R)-1-(2-chlorophenyl)-3,4-dihydroisoquinolin-2(1H)-yl]-N-(2-fluorobenzyl)-N-[2-(2-fluorophenyl)ethyl] propanamide]	< 1000 nM
O=C(CN1CCc2ccccc2C1c1ccc(O)cc1)N(Cc1ccccc1F)C1Cc2ccccc2C1 (stereo not drawn) [Compound 123, N-(indan-2-yl)-N-(2-fluorobenzyl)-2-[1-(4-hydroxyphenyl)-3,4-dihydroisoquinolin-2(1H)-yl]acetamide]	< 1000 nM
COc1ncccc1CN(Cc1ccccc1F)C(=O)[C@H](C)N1CCc2ccccc2[C@@H]1c1cccc2ccccc12 [Compound 122, (2S)-N-(2-fluorobenzyl)-N-[(2-methoxypyridin-3-yl)methyl]-2-[(1R)-1-(1-naphthyl)-3,4-dihydroisoquinolin-2(1H)-yl]propanamide]	< 1000 nM
O=C(CN1CCc2ccccc2[C@H]1c1ccccc1Br)N(Cc1ccccc1F)C1Cc2ccccc2C1 [Compound 40, 2-[(1S)-1-(2-bromophenyl)-3,4-dihydroisoquinolin-2(1H)-yl]-N-(indan-2-yl)-N-(2-fluorobenzyl)acetamide]	< 1000 nM
CCc1ccccc1C1c2ccccc2CCN1CC(=O)N(Cc1ccccc1F)C1Cc2ccccc2C1 (stereo not drawn) [Compound 29, N-(indan-2-yl)-2-[1-(2-ethylphenyl)-3,4-dihydroisoquinolin-2(1H)-yl]-N-(2-fluorobenzyl)acetamide]	< 1000 nM
Cc1ccccc1C1c2ccccc2[C@@H](C)CN1CC(=O)N(Cc1ccccc1F)C1Cc2ccccc2C1 (stereo partly drawn) [Compound 27, N-(indan-2-yl)-N-(2-fluorobenzyl)-2-[(4R)-4-methyl-1-(2-methylphenyl)-3,4-dihydroisoquinolin-2(1H)-yl]acetamide]	< 1000 nM
Cc1ccc(F)cc1C1c2ccccc2CCN1CC(=O)N(Cc1ccccc1F)C1Cc2ccccc2C1 (stereo not drawn) [Compound 57, N-(indan-2-yl)-N-(2-fluorobenzyl)-2-[1-(5-fluoro-2-methylphenyl)-3,4-dihydroisoquinolin-2(1H)-yl]acetamide]	< 1000 nM
O=C(CN1CCc2ccccc2C1c1ccc(F)cc1C(F)(F)F)N(Cc1ccccc1F)C1Cc2ccccc2C1 (stereo not drawn) [Compound 37, N-(indan-2-yl)-N-(2-fluorobenzyl)-2-[1-[4-fluoro-2-(trifluoromethyl)phenyl]-3,4-dihydroisoquinolin-2(1H)-yl]acetamide]	< 1000 nM
O=C(CN1CCc2cccc(Cl)c2C1c1c(F)cccc1Cl)N(Cc1ccccc1F)C1Cc2ccccc2C1 (stereo not drawn) [Compound 117, 2-[8-chloro-1-(2-chloro-6-fluorophenyl)-3,4-dihydroisoquinolin-2(1H)-yl]-N-(indan-2-yl)-N-(2-fluorobenzyl)acetamide]	< 1000 nM
C[C@@H](C(=O)N(CCc1ccccc1)Cc1ccccc1F)N1CCc2ccccc2[C@@H]1c1ccccc1Cl [Compound 91, (2S)-2-[(1R)-1-(2-chlorophenyl)-3,4-dihydroisoquinolin-2(1H)-yl]-N-(2-fluorobenzyl)-N-(2-phenylethyl)propanamide]	< 1000 nM

same assay, conditions: differentiated U937 cells, unit inferred, read-out: Ca2+ (numeric value, C5a receptor mediated calcium mobilization)

Ki	Structure (SMILES)
115 nM	Cc1ccccc1[C@@H]1CCCCN1[C@@H](C)C(=O)N(Cc1ccccc1F)C1Cc2ccccc2C1 (stereo in doubt) [Compound 132, N-(2-Fluoro-benzyl)-N-indan-2-yl-2-(2-o-tolyl-piperidin-1-yl)-propionamide]
193 nM	CC1=C(C)C(c2ccccc2C)N(CC(=O)N(Cc2ccccc2F)C2Cc3ccccc3C2)CC1 (stereo not drawn) [Compound 135, 2-(4,5-Dimethyl-6-o-tolyl-3,6-dihydro-2H-pyridin-1-yl)-N-(2-fluoro-benzyl)-N-indan-2-yl-acetamide]
405 nM	COc1ccccc1C1CCCCN1CC(=O)N(Cc1ccccc1F)C1Cc2ccccc2C1 (stereo not drawn) [Compound 130, N-(2-Fluoro-benzyl)-N-indan-2-yl-2-[2-(2-methoxy-phenyl)-piperidin-1-yl]-acetamide]
131 nM	Cc1ccccc1C1CCCCN1CC(=O)N(Cc1ccccc1F)C1Cc2ccccc2C1 (stereo not drawn) [Compound 129, N-(2-Fluoro-benzyl)-N-indan-2-yl-2-(2-o-tolyl-piperidin-1-yl)-acetamide]
